Earlier results as cited in patent US8394287B2, “Non-aqueous heat transfer fluid and use thereof” (priority 2001, dated 2013).

System: human
Conditions: Federal Register Vol. 63, No. 27, Feb. 10, 1998

Q: Which “lethal dose for a human” value does the source give for `OCCO` [EG, ethylene glycol] here?
A: Its value is “approximately 1,570 mg/kg body mass”.
